For 15 compounds, IC50 results are on record in US20240124454A1, “TRICYCLIC COMPOUND AND USE THEREOF” (NANJING ZAIMING PHARMACEUTICAL CO., LTD., priority 2020, published 2024).

For one assay, the system named is HCT116 WT cells. Put plainly: Cell proliferation inhibition test (Cell-Titer Glo), HCT116 WT. It counts as cell-based, human. The settings on record: Homo sapiens, HCT-116, 144 h, 6 days, read-out: HCT116 WT Antiproliferative activity IC50. Here is the method:
(§1) Test Example 3. Cell Proliferation Inhibition Test of Human Colon Cancer HCT116 WT Cells and HCT116 MTAP-1-Cells
(§2) The brief introduction of the test principle: After the test MAT2A inhibitor was incubated with cancer cells for a period of time, the effect of the test compound on cell proliferation was measured using a cell proliferation count method based on the ATP content.
(§3) Reference: The experiment referred to the method disclosed in patent WO2018045071.
(§4) Material and cell: HCT116 WT cells and HCT116 MTAP^−/− cells were purchased from KYinno; fetal bovine serum, McCoy's 5a culture medium, and penicillin-streptomycin were purchased from Gibco Company (U.S.), 96-well plates were purchased from Corning Company (U.S.), and the Cell-Titer Glo reagent was purchased from Promega Company (U.S.).
(§5) Cell culture: HCT116 WT cells and HCT116 MTAP^−/− cells were cultured with a McCoy's 5a medium containing 10% fetal bovine serum+1% penicillin-streptomycin at 37° C. with 5% CO2.
(§6) Cells at logarithmic growth phase were available for the experiment.
(§7) Cell proliferation activity test: The Cell-Titer Glo reagent was used to test the compound for inhibitory activity on proliferation of both HCT116 WT and HCT116 MTAP^−/− cell strains. The cells were adjusted to a concentration of 400 cells per well, seeded on a 96-well plate, and incubated overnight at 37° C. with 5% CO2.
(§8) In the experimental group, the test compound was diluted sequentially with DMSO and a culture medium, and transferred to a cell plate at a final concentration of 10 μM, 3-fold dilution. The cells were continuously cultured at 37° C. with 5% CO2 for 6 days. The Cell-Titer Glo reagent was added and the cell activity was measured.
(§9) A negative control group and a positive control group were respectively used as Bottom and Top. The negative control group was not added with cells, only added with the culture medium in the same volume, and other operations were consistent with those of the experimental group. The positive control group was not added with the test compound, only added with DMSO in the same volume, and other operations were consistent with those of the experimental group.
(§10) The % Compound inhibition was calculated and fitted to give the IC50 of the compound.
(§11) % Compound inhibition=1-100%×(Signal−Bottom)/(Top−Bottom).
(§12) Signal referred to the signal value of the experimental group, Bottom referred to the average signal value of the negative control group, and Top referred to the average signal value of the positive control group.
(§13) HCT116 MTAP^−/− cells are cells not expressing MTAP protein obtained by site-directed knockout of wild type HCT116 (HCT116 WT) cells by gene knockout. Synthetic lethality will occur due to MAT2A inhibition and the deletion of MTAP, thereby causing tumor cell death. The activity and selectivity of the MAT2A inhibitor can be evaluated by testing the antiproliferative activity of the MAT2A inhibitor on human colon cancer HCT116 MTAP^−/− cells and human colon cancer HCT116 WT.

A further assay addresses MAT2A (Homo sapiens (Human), UniProt P31153). Put plainly: MAT2A biochemical test (inorganic phosphate colorimetric, PiColorLock). To be noted: read-out: MAT2A inhibitory Activity IC50. The method, boiled down:
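Compounds tested from 10 μM top concentration in 3-fold dilutions, preincubated 120 min at room temperature with MAT2A ([…] final) in Tris/KCl/MgCl2/EDTA/BSA buffer. Reaction started with […] L-methionine and 400 μM ATP, run 90 min at room temperature; phosphate read by PiColorLock after 30 min. IC50 fitted from % inhibition versus no-enzyme and DMSO controls.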

For assay [1], the system named is HCT116 MTAP^−/− cells. Put plainly: Determination of intracellular SAM level by LC-MS/MS. It counts as cell-based. The settings on record: Homo sapiens, HCT-116, 6 h, read-out: SAM production inhibitory activity IC50. Here is the method:
Test Example 2. Determination of Intracellular SAM Level
The brief introduction of the test principle: After the test MAT2A inhibitor was incubated with cancer cells for a period of time, the cells were lysed with a stop reagent to quench the activity of the MAT2A enzyme. The catalytic product SAM of MAT2A in the cell lysate was quantitatively determined by LC-MS/MS, and thus the activity of MAT2A in the cell was reflected.
as §3
Material and cell: HCT116 MTAP^−/− cells were purchased from KYinno; fetal bovine serum, McCoy's 5a culture medium, and penicillin-streptomycin were purchased from Gibco Company (U.S.), and 96-well plates were purchased from Corning Company (U.S.).
Cell culture: HCT116 MTAP^−/− cells were cultured with a McCoy's 5a medium containing 10% fetal bovine serum+1% penicillin-streptomycin at 37° C. with 5% CO2. Cells at logarithmic growth phase were available for the experiment.
LC-MS/MS detection: The effect of the compound on the SAM production level in HCT116 MTAP^−/− cell strains was detected by LC-MS/MS. The cells were adjusted to a concentration of 50000 cells per well, seeded on a 96-well plate, and incubated overnight at 37° C. with 5% CO2. In the experimental group, the test compound was dissolved in DMSO, diluted sequentially with DMSO and a culture medium, and transferred to a cell plate at a final concentration of 10 μM, 3-fold dilution. The cells were continuously cultured at 37° C. with 5% CO2 for 6 h. The supernatant was pipetted off. After the cells were washed once with PBS, glacial acetic acid was added to lyse the cells. After the lysate was processed, the SAM concentration was determined by LC-MS/MS analysis.
A negative control group and a positive control group were respectively used as Bottom and Top. The negative control group was added with 10 μM positive compound (compound 072 of Example 51 of patent WO2021139775A1) in the same volume, and other operations were consistent with those of the experimental group. The positive control group was not added with the test compound, only added with DMSO in the same volume, and other operations were consistent with those of the experimental group.
as §10
% Compound inhibition=1−100%×(Signal−Bottom)/(Top−Bottom)
as §12

For assay [2], the system named is HCT116 MTAP^−/− cells. Put plainly: Cell proliferation inhibition test (Cell-Titer Glo), HCT116 MTAP−/−. It counts as cell-based, human. To be noted: Homo sapiens, HCT-116, 144 h, 6 days, read-out: HCT116 MTAP−/− Antiproliferative activity IC50. The procedure:
as §1, §2, §3, §4, §5, §6, §7, §8, §9, §10, §11, §12, §13

Structures are written as SMILES. Where two headings read alike, the source gives them in different places.

Sequence of MAT2A (P31153 whole entry): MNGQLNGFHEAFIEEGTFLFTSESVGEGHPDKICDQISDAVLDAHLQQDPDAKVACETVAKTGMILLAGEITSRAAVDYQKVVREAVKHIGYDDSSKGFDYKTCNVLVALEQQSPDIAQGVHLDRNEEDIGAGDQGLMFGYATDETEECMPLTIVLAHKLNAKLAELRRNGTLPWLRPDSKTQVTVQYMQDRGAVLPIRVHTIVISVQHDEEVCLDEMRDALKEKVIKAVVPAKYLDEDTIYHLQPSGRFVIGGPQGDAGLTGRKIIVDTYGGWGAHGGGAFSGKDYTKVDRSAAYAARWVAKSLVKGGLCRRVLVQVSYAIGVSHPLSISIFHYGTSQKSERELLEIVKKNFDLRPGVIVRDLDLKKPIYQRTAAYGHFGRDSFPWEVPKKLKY

Consider `Cc1ncccc1-n1c(=O)c2ncn(C)c2c2ccc(C(F)(F)F)nc21` (single isomer, unassigned) [Compound 20-P1, 1-methyl-5-(2-methylpyridin-3-yl)-7-(trifluoromethyl)-1,5-dihydro-4H-imidazo[4,5-c][1,8]naphthyridin-4-one], for which the IC50 with HCT116 WT cells was 237 nM; on MAT2A (class symbols), below 100 nM; at MAT2A (numeric values), 20.5 nM; in the assay with HCT116 MTAP^−/− cells [1], 1.6 nM; in the assay with HCT116 MTAP^−/− cells [2], 33 nM.
Turning to `Cn1cnc2c(=O)n(-c3cccc(C#N)c3Cl)c3nc(C(F)(F)F)ccc3c21` (single isomer, unassigned) [Compound 73-P2, 2-chloro-3-(1-methyl-4-oxo-7-(trifluoromethyl)-1,4-dihydro-5H-imidazo[4,5-c][1,8]naphthyridin-5-yl)benzonitrile], the IC50 with HCT116 WT cells was 2210 nM; on MAT2A (class symbols), below 100 nM; at MAT2A (numeric values), 27.3 nM; in the assay on HCT116 MTAP^−/− cells [2] it was 194 nM.
On to `Cc1ncccc1-n1c(=O)c2ncoc2c2ccc(C(F)(F)F)cc21` (single isomer, unassigned) [Compound 82-P2, 5-(2-methylpyridin-3-yl)-7-(trifluoromethyl)oxazolo[4,5-c]quinolin-4(5H)-one], for which the IC50 in the assay with HCT116 WT cells is 271 nM; at MAT2A (class symbols) it was below 100 nM; at MAT2A (numeric values), 23.1 nM; in the assay with HCT116 MTAP^−/− cells [2], 50.2 nM.
Turning to `Cc1ncccc1-n1c(=O)c2ncoc2c2ccc(Cl)cc21` (single isomer, unassigned) [Compound 83-P2, 7-chloro-5-(2-methylpyridin-3-yl)oxazolo[4,5-c]quinolin-4(5H)-one], the IC50 is 203 nM in the assay with HCT116 WT cells, below 100 nM at MAT2A (class symbols), 23.1 nM at MAT2A (numeric values) and 54.3 nM in the assay on HCT116 MTAP^−/− cells [2].
For the compound `O=c1c2nc[nH]c2c2ccc(C(F)(F)F)nc2n1-c1ccccc1Cl` [Compound 1, 5-(2-chlorophenyl)-7-(trifluoromethyl)-1,5-dihydro-4H-imidazo[4,5-c][1,8]naphthyridin-4-one], the IC50 with HCT116 WT cells was 816 nM; at MAT2A (class symbols), below 100 nM; at MAT2A (numeric values), 31.9 nM; in the assay with HCT116 MTAP^−/− cells [1], 3.8 nM; in the assay on HCT116 MTAP^−/− cells [2], 115 nM.
`COc1nc2c(=O)n(-c3ccccc3Cl)c3nc(C(F)(F)F)ccc3c2[nH]1` [Compound 5, 5-(2-chlorophenyl)-2-methoxy-7-(trifluoromethyl)-1,5-dihydro-4H-imidazo[4,5-c][1,8]naphthyridin-4-one]: the IC50 is above 10000 nM in the assay on HCT116 WT cells, below 100 nM at MAT2A (class symbols), 41.6 nM on MAT2A (numeric values) and 274 nM with HCT116 MTAP^−/− cells [2].
On to `O=c1c2[nH]ncc2c2ccc(C(F)(F)F)nc2n1-c1ccccc1Cl` [Compound 6, 5-(2-chlorophenyl)-7-(trifluoromethyl)-3,5-dihydro-4H-pyrazolo[3,4-c][1,8]naphthyridin-4-one], for which the IC50 in the assay with HCT116 WT cells is 1110 nM; on MAT2A (class symbols), below 100 nM; on MAT2A (numeric values) it was 50.1 nM; with HCT116 MTAP^−/− cells [2], 288 nM.
With `O=c1c2nc(C(F)(F)F)[nH]c2c2ccc(C(F)(F)F)nc2n1-c1ccccc1Cl` [Compound 9, 5-(2-chlorophenyl)-2,7-bis(trifluoromethyl)-1,5-dihydro-4H-imidazo[4,5-c][1,8]naphthyridin-4-one], the IC50 in the assay with HCT116 WT cells is 4180 nM; at MAT2A (class symbols), below 100 nM; on MAT2A (numeric values) it was 29.6 nM; in the assay on HCT116 MTAP^−/− cells [2], 426 nM.
Consider `O=c1c2ncoc2c2ccc(C(F)(F)F)nc2n1-c1cccc(F)c1Cl` [Compound 35, 5-(2-chloro-3-fluorophenyl)-7-(trifluoromethyl)oxazolo[4,5-c][1,8]naphthyridin-4(5H)-one], for which the IC50 in the assay with HCT116 WT cells was 1210 nM; on MAT2A (class symbols) it was below 100 nM; on MAT2A (numeric values), 49 nM; in the assay with HCT116 MTAP^−/− cells [2], 238 nM.
Consider `Cc1ccc2c3c(ncn3C)c(=O)n(-c3cccc(F)c3Cl)c2n1` [Compound 38, 5-(2-chloro-3-fluorophenyl)-1,7-dimethyl-1,5-dihydro-4H-imidazo[4,5-c][1,8]naphthyridin-4-one], for which the IC50 with HCT116 WT cells was 605 nM; at MAT2A (class symbols) it was below 100 nM; at MAT2A (numeric values), 82 nM; in the assay with HCT116 MTAP^−/− cells [2] it was 130 nM.
For `[2H]C([2H])([2H])n1cnc2c(=O)n(-c3cccc(F)c3Cl)c3nc(C(F)(F)F)ccc3c21` [Compound 44, 5-(2-chloro-3-fluorophenyl)-1-(methyl-d3)-7-(trifluoromethyl)-1,5-dihydro-4H-imidazo[4,5-c][1,8]naphthyridin-4-one] the same measures were 667 nM, below 100 nM, 49.5 nM and 71.5 nM.
For `Cn1cnc2c(=O)n(-c3cccnc3)c3nc(C(F)(F)F)ccc3c21` [Compound 64, 1-methyl-5-(pyridin-3-yl)-7-(trifluoromethyl)-1,5-dihydro-4H-imidazo[4,5-c][1,8]naphthyridin-4-one], the IC50 in the assay with HCT116 WT cells was 1050 nM; at MAT2A (class symbols) it was below 100 nM; in the assay on HCT116 MTAP^−/− cells [2], 398 nM.
As to `Cn1cnc2c(=O)n(-c3cccc(F)c3Cl)c3nc(C(F)(F)F)ncc3c21` [Compound 65, 5-(2-chloro-3-fluorophenyl)-1-methyl-7-(trifluoromethyl)-1,5-dihydro-4H-imidazo[4′,5′:4,5]pyrido[2,3-d]pyrimidin-4-one], the IC50 in the assay with HCT116 WT cells was 859 nM; at MAT2A (class symbols), below 100 nM; on MAT2A (numeric values), 78.3 nM; in the assay with HCT116 MTAP^−/− cells [2], 188 nM.
With `COc1ncccc1-n1c(=O)c2ncn(C)c2c2ccc(C(F)(F)F)nc21` [Compound 68, 5-(2-methoxypyridin-3-yl)-1-methyl-7-(trifluoromethyl)-1,5-dihydro-4H-imidazo[4,5-c][1,8]naphthyridin-4-one], the IC50 in the assay on HCT116 WT cells is above 10000 nM; on MAT2A (class symbols) it was below 100 nM; at MAT2A (numeric values) it was 53.5 nM; in the assay on HCT116 MTAP^−/− cells [2], 394 nM.
For the compound `[2H]C([2H])([2H])n1cnc2c(=O)n(-c3cccnc3C)c3nc(C(F)(F)F)ccc3c21` [Compound 72, 1-(methyl-d3)-5-(2-methylpyridin-3-yl)-7-(trifluoromethyl)-1,5-dihydro-4H-imidazo[4,5-c][1,8]naphthyridin-4-one], the IC50 in the assay on HCT116 WT cells was 970 nM; at MAT2A (class symbols), below 100 nM; at MAT2A (numeric values) it was 52.1 nM; with HCT116 MTAP^−/− cells [2] it was 191 nM.
